Measurements from ChEMBL document CHEMBL3804786, “Novel 1,3-thiazolidin-4-one derivatives as promising anti-Candida agents endowed with anti-oxidant and chelating properties” (Eur J Med Chem, 2016).
Values after ≈ are worked out from the molar mass of the structure shown.

Assays:
[1] = system: Candida tropicalis; experiment: Antifungal activity against Candida tropicalis clinical isolate after 24 hrs by broth microdilution method; assay type: functional
[2] = system: Candida albicans; experiment: Antifungal activity against Candida albicans clinical isolate after 24 hrs by broth microdilution method; assay type: functional
[3] = system: Staphylococcus aureus; experiment: Antibacterial activity against Staphylococcus aureus clinical isolate after 18 to 22 hrs by broth microdilution method; assay type: functional
[4] = system: Enterococcus faecalis; experiment: Antibacterial activity against Streptococcus faecalis clinical isolate after 18 to 22 hrs by broth microdilution method; assay type: functional
[5] = system: Nakaseomyces glabratus; experiment: Antifungal activity against Candida glabrata clinical isolate after 24 hrs by broth microdilution method; assay type: functional
[6] = system: Enterobacter sp.; experiment: Antibacterial activity against Enterobacter spp. clinical isolate after 18 to 22 hrs by broth microdilution method; assay type: functional
[7] = system: Escherichia coli; experiment: Antibacterial activity against Escherichia coli after clinical isolate 18 to 22 hrs by broth microdilution method; assay type: functional
[8] = system: [Candida] sake; experiment: Antifungal activity against Candida sake clinical isolate after 24 hrs by broth microdilution method; assay type: functional; conditions: Fermentozyma sake
[9] = system: Pichia kudriavzevii; experiment: Antifungal activity against Candida krusei clinical isolate after 24 hrs by broth microdilution method; assay type: functional
[10] = system: Candida parapsilosis; experiment: Antifungal activity against Candida parapsilosis clinical isolate after 24 hrs by broth microdilution method; assay type: functional; conditions: Lodderomyces parapsilosis
[11] = system: Streptococcus sp. (viridans group); experiment: Antibacterial activity against Streptococcus alpha-hemolyticus clinical isolate after 18 to 22 hrs by broth microdilution method
[12] = system: Klebsiella oxytoca; experiment: Antibacterial activity against Klebsiella oxytoca clinical isolate after 18 to 22 hrs by broth microdilution method; assay type: functional
[13] = system: Staphylococcus warneri; experiment: Antibacterial activity against Staphylococcus warneri clinical isolate after 18 to 22 hrs by broth microdilution method; assay type: functional
[14] = system: Proteus mirabilis; experiment: Antibacterial activity against Proteus mirabilis clinical isolate after 18 to 22 hrs by broth microdilution method; assay type: functional

SMILES	MIC [1]	MIC [2]	MIC [3]	MIC [4]	MIC [5]	MIC [6]	MIC [7]	MIC [8]	MIC [9]	MIC [10]	MIC [11]	MIC [12]	MIC [13]	MIC [14]
CC(C)=N/N=C1\SCC(=O)N1Cc1ccccc1F	4 µg/mL (≈ 14.3 µM)	8 µg/mL (≈ 28.6 µM)	> 256 µg/mL	> 256 µg/mL	2 µg/mL (≈ 7.16 µM)	> 256 µg/mL	> 256 µg/mL	8 µg/mL (≈ 28.6 µM)	8 µg/mL (≈ 28.6 µM)	4 µg/mL (≈ 14.3 µM)	> 256 µg/mL	> 256 µg/mL	> 256 µg/mL	> 256 µg/mL
C/C(=N\N=C1/SCC(=O)N1Cc1ccccc1F)c1ccccn1	4 µg/mL (≈ 11.7 µM)	4 µg/mL (≈ 11.7 µM)	> 256 µg/mL	> 256 µg/mL	8 µg/mL (≈ 23.4 µM)	> 256 µg/mL	> 256 µg/mL	8 µg/mL (≈ 23.4 µM)	4 µg/mL (≈ 11.7 µM)	4 µg/mL (≈ 11.7 µM)	> 256 µg/mL	> 256 µg/mL	> 256 µg/mL	> 256 µg/mL
CC(C)=N/N=C1\SCC(=O)N1Cc1ccc(Cl)cc1	8 µg/mL (≈ 27 µM)	4 µg/mL (≈ 13.5 µM)	> 256 µg/mL	> 256 µg/mL	2 µg/mL (≈ 6.76 µM)	> 256 µg/mL	> 256 µg/mL	4 µg/mL (≈ 13.5 µM)	8 µg/mL (≈ 27 µM)	2 µg/mL (≈ 6.76 µM)	> 256 µg/mL	> 256 µg/mL	> 256 µg/mL	> 256 µg/mL
C/C(=N\N=C1/SCC(=O)N1Cc1cccc(F)c1)c1ccccn1	8 µg/mL (≈ 23.4 µM)	2 µg/mL (≈ 5.84 µM)	> 256 µg/mL	> 256 µg/mL	2 µg/mL (≈ 5.84 µM)	> 256 µg/mL	> 256 µg/mL	4 µg/mL (≈ 11.7 µM)	8 µg/mL (≈ 23.4 µM)	2 µg/mL (≈ 5.84 µM)	> 256 µg/mL	> 256 µg/mL	> 256 µg/mL	> 256 µg/mL
C/C(=N\N=C1/SCC(=O)N1Cc1ccccc1Cl)c1cccs1	2 µg/mL (≈ 5.5 µM)	4 µg/mL (≈ 11 µM)	> 256 µg/mL	> 256 µg/mL	4 µg/mL (≈ 11 µM)	> 256 µg/mL	> 256 µg/mL	8 µg/mL (≈ 22 µM)	8 µg/mL (≈ 22 µM)	8 µg/mL (≈ 22 µM)	> 256 µg/mL	> 256 µg/mL	> 256 µg/mL	> 256 µg/mL
CC(C)=N/N=C1\SCC(=O)N1Cc1ccccc1Cl	16 µg/mL (≈ 54.1 µM)	2 µg/mL (≈ 6.76 µM)	> 256 µg/mL	> 256 µg/mL	2 µg/mL (≈ 6.76 µM)	> 256 µg/mL	> 256 µg/mL	2 µg/mL (≈ 6.76 µM)	8 µg/mL (≈ 27 µM)	8 µg/mL (≈ 27 µM)	> 256 µg/mL	> 256 µg/mL	> 256 µg/mL	> 256 µg/mL
CC(C)=N/N=C1\SCC(=O)N1Cc1cccc(F)c1	4 µg/mL (≈ 14.3 µM)	4 µg/mL (≈ 14.3 µM)	> 256 µg/mL	> 256 µg/mL	4 µg/mL (≈ 14.3 µM)	> 256 µg/mL	> 256 µg/mL	8 µg/mL (≈ 28.6 µM)	4 µg/mL (≈ 14.3 µM)	2 µg/mL (≈ 7.16 µM)	> 256 µg/mL	> 256 µg/mL	> 256 µg/mL	> 256 µg/mL
O=C1CS/C(=N\N=C2CCCC2)N1Cc1cccc(F)c1	16 µg/mL (≈ 52.4 µM)	4 µg/mL (≈ 13.1 µM)	> 256 µg/mL	> 256 µg/mL	2 µg/mL (≈ 6.55 µM)	> 256 µg/mL	> 256 µg/mL	8 µg/mL (≈ 26.2 µM)	2 µg/mL (≈ 6.55 µM)	4 µg/mL (≈ 13.1 µM)	> 256 µg/mL	> 256 µg/mL	> 256 µg/mL	> 256 µg/mL
CC(C)=N/N=C1\SCC(=O)N1Cc1ccc(F)cc1	16 µg/mL (≈ 57.3 µM)	8 µg/mL (≈ 28.6 µM)	> 256 µg/mL	> 256 µg/mL	4 µg/mL (≈ 14.3 µM)	> 256 µg/mL	> 256 µg/mL	8 µg/mL (≈ 28.6 µM)	16 µg/mL (≈ 57.3 µM)	2 µg/mL (≈ 7.16 µM)	> 256 µg/mL	> 256 µg/mL	> 256 µg/mL	> 256 µg/mL
O=C1CS/C(=N\N=C2CCCC2)N1Cc1ccc(F)cc1	16 µg/mL (≈ 52.4 µM)	8 µg/mL (≈ 26.2 µM)	> 256 µg/mL	> 256 µg/mL	4 µg/mL (≈ 13.1 µM)	> 256 µg/mL	> 256 µg/mL	8 µg/mL (≈ 26.2 µM)	8 µg/mL (≈ 26.2 µM)	2 µg/mL (≈ 6.55 µM)	> 256 µg/mL	> 256 µg/mL	> 256 µg/mL	> 256 µg/mL
CC(C)=N/N=C1\SCC(=O)N1Cc1cccc(Cl)c1	2 µg/mL (≈ 6.76 µM)	8 µg/mL (≈ 27 µM)	> 256 µg/mL	> 256 µg/mL	4 µg/mL (≈ 13.5 µM)	> 256 µg/mL	> 256 µg/mL	4 µg/mL (≈ 13.5 µM)	2 µg/mL (≈ 6.76 µM)	4 µg/mL (≈ 13.5 µM)	> 256 µg/mL	> 256 µg/mL	> 256 µg/mL	> 256 µg/mL
O=C1CS/C(=N\N=C2CCCC2)N1Cc1ccccc1Cl	4 µg/mL (≈ 12.4 µM)	2 µg/mL (≈ 6.21 µM)	> 256 µg/mL	> 256 µg/mL	4 µg/mL (≈ 12.4 µM)	> 256 µg/mL	> 256 µg/mL	2 µg/mL (≈ 6.21 µM)	8 µg/mL (≈ 24.9 µM)	8 µg/mL (≈ 24.9 µM)	> 256 µg/mL	> 256 µg/mL	> 256 µg/mL	> 256 µg/mL
O=C1CS/C(=N\N=C2CCCC2)N1Cc1cccc(Cl)c1	8 µg/mL (≈ 24.9 µM)	4 µg/mL (≈ 12.4 µM)	> 256 µg/mL	> 256 µg/mL	4 µg/mL (≈ 12.4 µM)	> 256 µg/mL	> 256 µg/mL	2 µg/mL (≈ 6.21 µM)	16 µg/mL (≈ 49.7 µM)	4 µg/mL (≈ 12.4 µM)	> 256 µg/mL	> 256 µg/mL	> 256 µg/mL	> 256 µg/mL
C/C(=N\N=C1/SCC(=O)N1Cc1ccccc1Cl)c1ccccn1	2 µg/mL (≈ 5.57 µM)	4 µg/mL (≈ 11.1 µM)	> 256 µg/mL	> 256 µg/mL	4 µg/mL (≈ 11.1 µM)	> 256 µg/mL	> 256 µg/mL	4 µg/mL (≈ 11.1 µM)	4 µg/mL (≈ 11.1 µM)	8 µg/mL (≈ 22.3 µM)	> 256 µg/mL	> 256 µg/mL	> 256 µg/mL	> 256 µg/mL
C[C@@H]1[C@H](O)[C@@H](C)/C=C/C=C/C=C/C=C/C=C/C=C/C=C/[C@H](O[C@@H]2O[C@H](C)[C@@H](O)[C@H](N)[C@@H]2O)C[C@@H]2O[C@](O)(C[C@@H](O)C[C@@H](O)[C@H](O)CC[C@@H](O)C[C@@H](O)CC(=O)O[C@H]1C)C[C@H](O)[C@H]2C(=O)O [AMPHOTERICIN B]	2 µg/mL (≈ 2.16 µM)	4 µg/mL (≈ 4.33 µM)			4 µg/mL (≈ 4.33 µM)			2 µg/mL (≈ 2.16 µM)	4 µg/mL (≈ 4.33 µM)	2 µg/mL (≈ 2.16 µM)				
CC(C)(O/N=C(\C(=O)N[C@@H]1C(=O)N2C(C(=O)[O-])=C(C[n+]3ccccc3)CS[C@H]12)c1csc(N)n1)C(=O)O [CEFTAZIDIME]			2 µg/mL (≈ 3.66 µM)	4 µg/mL (≈ 7.32 µM)		8 µg/mL (≈ 14.6 µM)	4 µg/mL (≈ 7.32 µM)				4 µg/mL (≈ 7.32 µM)	8 µg/mL (≈ 14.6 µM)	4 µg/mL (≈ 7.32 µM)	8 µg/mL (≈ 14.6 µM)
OC(Cn1cncn1)(Cn1cncn1)c1ccc(F)cc1F [FLUCONAZOLE]	2 µg/mL (≈ 6.53 µM)	2 µg/mL (≈ 6.53 µM)			2 µg/mL (≈ 6.53 µM)			2 µg/mL (≈ 6.53 µM)	2 µg/mL (≈ 6.53 µM)	2 µg/mL (≈ 6.53 µM)				
CC(=O)N1CCN(c2ccc(OCC3COC(Cn4ccnc4)(c4ccc(Cl)cc4Cl)O3)cc2)CC1 (centres undefined) [KETOCONAZOLE]	2 µg/mL (≈ 3.76 µM)	2 µg/mL (≈ 3.76 µM)			2 µg/mL (≈ 3.76 µM)			4 µg/mL (≈ 7.53 µM)	4 µg/mL (≈ 7.53 µM)	2 µg/mL (≈ 3.76 µM)				
Clc1ccc(COC(Cn2ccnc2)c2ccc(Cl)cc2Cl)c(Cl)c1 (centres undefined) [MICONAZOLE]	2 µg/mL (≈ 4.81 µM)	2 µg/mL (≈ 4.81 µM)			4 µg/mL (≈ 9.61 µM)			2 µg/mL (≈ 4.81 µM)	4 µg/mL (≈ 9.61 µM)	4 µg/mL (≈ 9.61 µM)				
Clc1ccc(C(Cn2ccnc2)OCc2ccsc2Cl)c(Cl)c1 (centres undefined) [TIOCONAZOLE]	8 µg/mL (≈ 20.6 µM)	8 µg/mL (≈ 20.6 µM)			4 µg/mL (≈ 10.3 µM)			4 µg/mL (≈ 10.3 µM)	8 µg/mL (≈ 20.6 µM)	8 µg/mL (≈ 20.6 µM)				
